Entries after “also recorded” stand apart in the source; their conditions may differ.
What was measured:
[1] = system: PBMC from chronic HBV-infected subjects; test: IFNγ ELISpot of PBMC restimulated with individual unconjugated HBV long peptides (Example 5); type: cell-based, human; conditions: for T cell responses (IFNγ ELISpot), level and frequency of responders: HBeAg-negative inactive carriers and HBeAg-negative treated subjects, 5 μg/mL, 18 h, FIGS. 9 and 10; for T cell responses (IFNγ ELISpot) grouped by infecting HBV genotype: genotypes A, B, C & D, FIG. 11; for T cell responses (IFNγ ELISpot) grouped by ethnic background: three ethnic groups, FIG. 12
Protocol: One vial of PBMC from each subject (containing 1×10^7 cells) was thawed and lymphocyte numbers were determined using a Scepter™ automated handheld cell counter. PBMC were cultured in 2 mL culture medium (CM: RPMI-1640 Glutamax supplemented with 5% human AB serum) in 24 well cell culture plates at a concentration of 1×10^6 cells/mL for a total of 11 days. Cells were stimulated with a mixture of the nine HBV-derived long peptides described in Example 3.
Each peptide was used at a final concentration of 1 μg/peptide/mL. On Day 4, IL-2 and IL-15 were added to the cultures to final concentrations of 10 IU/mL and 10 ng/mL respectively. On Day 10, cells were washed twice in CM and cultured with 10 IU/mL IL-2 for 1 additional day. On Day 11, cells were washed twice in CM, counted and incorporated in a human IFNγ (interferon-gamma) ELISpot assay or intracellular cytokine staining.
Cells from short term cultures were plated in triplicate wells at 5×10^4 PBMC/well. Final antigen concentrations used were: 5 μg/mL for each individual peptides; PHA positive control: 1 μg/mL.

[2] = system: BALB/c mice; test: Immunogenicity in mice, IFNγ ELISpot of splenocytes, FP02.1 vs NP02.1 (Example 6); type: in vivo; conditions: mice immunised with FP02.1 or NP02.1, restimulation 5 μg/mL/peptide, FIG. 15
Protocol: The immunogenicity in mice of FP02.1 (containing nine fluorocarbon-conjugated peptides) was compared to NP02.1 (containing nine equivalent unconjugated peptides).
Alternatively, splenocytes were stimulated in vitro with 5 μg/mL/peptide of nine individual peptides for 18 hours in an ELISpot assay. The number of IFNγ+ spot forming cells (SFC) was counted. Plates then were washed with PBS, incubated with an IFNγ detection peroxidase-labelled antibody, followed by a substrate, according to the manufacturer's instructions.

[3] = system: HLA-DP4 (α1*01:03;β1*04:01); test: ProImmune REVEAL MHC class II binding assay of long peptides; set-up: species or system human; conditions: percentage of the signal of the positive control peptide; positive binding score >=15%
[4] = system: HLA-DR1 (α1*01:01;β1*01:01); test: as above; set-up: species or system human; conditions: percentage of the signal of the positive control peptide; positive binding score >=15%
Source text: (§1) The highly frequent HLA class II alleles HLA-DR1 (α1*01:01;β1*01:01), HLA-DR15 (α1*01:01;β1*15:01), HLA-DR3 (α1*01:01;β1*03:01), HLA-DR4 (α1*01:01;β1*04:01), HLA-DR11 (α1*01:01;β1*11:01), HLA-DR13 (α1*01:01;β1*13:01), and HLA-DR7 (α1*01:01;β1*07:01) were selected. Each peptide was given a score relative to the positive control peptide, which is a known T-cell epitope. The score of the test peptide is reported quantitatively as a percentage of the signal generated by the positive control peptide, and the peptide is indicated as having a putative pass or fail result. Good binders are considered to be those peptides with scores >=15% of the positive control as defined by Proimmune.

[5] = system: HLA-DR3 (α1*01:01;β1*03:0); test: as above; set-up: species or system human; conditions: percentage of the signal of the positive control peptide; positive binding score >=15%
Source text: as §1

[6] = system: HLA-DR11 (α1*01:01;β1*11:01); test: as above; set-up: species or system human; conditions: percentage of the signal of the positive control peptide; positive binding score >=15%
Source text: The highly frequent HLA class II alleles HLA-DR1 (α1*01:01;β1*01:01), HLA-DR15 (α1*01:01;β1*15:01), HLA-DR3 (α1*01:01;β1*03:01), HLA-DR4 (α1*01:01;β1*04:01), HLA-DR11 (α1*01:01;β1*11:01), HLA-DR13 (α1*01:01;β1*13:01), and HLA-DR7 (α1*01:01;β1*07:01) were selected. Each peptide was given a score relative to the positive control peptide, which is a known T-cell epitope.

[7] = system: HLA class II alleles; test: ProImmune REVEAL MHC class II binding assay, summary over the seven alleles; set-up: species or system human; conditions: number of class II alleles for which positive binding (score >=15%) was detected
Source text: as §1

| Substance | T cell responses (IFNγ ELISpot), level and frequency of responders [1] | T cell responses (IFNγ ELISpot) grouped by infecting HBV genotype [1] | T cell responses (IFNγ ELISpot) grouped by ethnic background [1] | IFNγ response of splenocytes to each individual peptide component [2] | IFNγ response of splenocytes to each individual peptide component ([2]; listed as P113) | binding score, HLA-DP4 (α1*01:03;β1*04:01) [3] [%] | binding score, HLA-DR1 (α1*01:01;β1*01:01) [4] [%] | binding score, HLA-DR3 (α1*01:01;β1*03:0) [5] [%] | binding score, HLA-DR11 (α1*01:01;β1*11:01) [6] [%] | Number of allele (a) [7] |
| --- | --- | --- | --- | --- | --- | --- | --- | --- | --- | --- |
| NP113: unconjugated HBV long peptide, polymerase region 96-130 of virtual HBV proteome (VGPLTVNEKRRLKLIMPARFYPNVTKYLPLDKGIK; HBV CONSENSUS SEQUENCE) | highest level of responses in both patient populations and in the highest proportion of subjects | highest responses across all four genotypes A, B, C & D; also recorded: highest T cell response across all four genotypes compared to all other peptides | highest responses across all three ethnic groups | immune responses were dominated by four out of the 9 peptides contained in the vaccine | only observed with the formulation containing the fluorocarbon-conjugated peptides | 33.51 | 54.44 | 49.98 | – | – |
| NP151: unconjugated HBV long peptide, polymerase region 134-168 (PEHVVNHYFQTRHYLHTLWKAGILYKRETTRSASF; HBV CONSENSUS SEQUENCE) | highest level of responses in both patient populations and in the highest proportion of subjects | highest responses across all four genotypes A, B, C & D | highest responses across all three ethnic groups | immune responses were dominated by four out of the 9 peptides contained in the vaccine | – | 74.36 | 14.59 | 0.00 | – | – |
| NP753(K): unconjugated HBV long peptide, core KK + 738-770 (S to T at 743) + KKK (KKKEFGATVELLSFLPSDFFPSVRDLLDTASALYRKKK; HBV CONSENSUS SEQUENCE) | highest level of responses in both patient populations and in the highest proportion of subjects | highest responses across all four genotypes A, B, C & D | highest responses across all three ethnic groups | – | – | 0.65 | 0.11 | 0.00 | 1.51 | 0 |
